Measured values reported in the supplement of paper PMC10307832.

compound: CC[C@@H]1C(=O)N(C)c2cnc(Nc3ccc(C(=O)NC4CCN(C)CC4)cc3OC)nc2N1C1CCCC1 [BI-2536] + Nc1nc2[nH]cc(CCc3ccc(C(=O)N[C@@H](CCC(=O)O)C(=O)O)cc3)c2c(=O)[nH]1 [Pemetrexed] (partner 0.2 µM); experiment: relative viability (nuclei count vs DMSO), 5 days (fraction); higher = more cells survive; settings: first compound 0.01 µM
Outline: (§1)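 Lung cancer cell lines were pin-tool dosed in 1536-well plates on the day after seeding, with either a lone drug or a fixed anchor-drug dose plus five library-drug doses (not always all listed) in √10 steps. Nuclei were counted on 4× images after 5 days. Relative viability is the ratio of treated-well to vehicle-well nuclei counts, with each value a median of duplicate plates.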

Cell Line | relative viability
NCI-H522 | 1.1
NCI-H1650 | 0.383
NCI-H1993 | 0.64
SW 1573 | 0.753
NCI-H838 | 0.241
LCLC-103H | 0.458
NCI-H520 | 0.666
NCI-H2126 | 0.747
EMC-BAC-2 | 0.44
NCI-H2085 | 0.961
HCC-366 | 0.193
NCI-H1666 | 0.822
NCI-H596 | 0.528
LK-2 | 0.249
NCI-H2087 | 0.7
SK-MES-1 | 0.912
H3255 | 0.543
HCC-44 | 0.738
SW 900 | 0.492
NCI-H1648 | 0.878
NCI-H661 | 0.936
NCI-H1792 | 0.779
NCI-H1563 | 0.736
NCI-H358 | 0.191
NCI-H650 | 0.912

same assay, conditions: first compound 0.03162 µM

Cell Line | relative viability
NCI-H522 | 0.977
NCI-H1650 | 0.297
NCI-H1993 | 0.569
SW 1573 | 0.516
NCI-H838 | 0.239
LCLC-103H | 0.488
NCI-H520 | 0.32
NCI-H2126 | 0.74
EMC-BAC-2 | 0.429
NCI-H2085 | 1.01
HCC-366 | 0.17
NCI-H1666 | 0.881
NCI-H596 | 0.491
LK-2 | 0.249
NCI-H2087 | 0.697
NCI-H2342 | 0.724
SK-MES-1 | 0.887
H3255 | 0.528
HCC-44 | 0.612
SW 900 | 0.468
NCI-H1648 | 0.511
NCI-H661 | 0.61
NCI-H1792 | 0.792
NCI-H1563 | 0.789
NCI-H358 | 0.178
NCI-H650 | 1.11

same assay, conditions: first compound 0.1 µM

Cell Line | relative viability
NCI-H522 | 1.03
NCI-H1650 | 0.288
NCI-H1993 | 0.421
SW 1573 | 0.149
NCI-H838 | 0.183
LCLC-103H | 0.344
NCI-H520 | 0.204
NCI-H2126 | 0.369
EMC-BAC-2 | 0.367
NCI-H2085 | 0.664
HCC-366 | 0.157
NCI-H1666 | 0.831
NCI-H596 | 0.487
LK-2 | 0.0925
NCI-H2087 | 0.713
NCI-H2342 | 0.716
SK-MES-1 | 0.66
H3255 | 0.492
HCC-44 | 0.651
SW 900 | 0.46
NCI-H1648 | 0.41
NCI-H661 | 0.449
NCI-H1792 | 0.328
NCI-H1563 | 0.744
NCI-H358 | 0.194
NCI-H650 | 0.551

same assay, conditions: first compound 0.3162 µM

Cell Line | relative viability
NCI-H522 | 0.342
NCI-H1650 | 0.166
NCI-H1993 | 0.393
SW 1573 | 0.124
NCI-H838 | 0.12
LCLC-103H | 0.231
NCI-H520 | 0.179
NCI-H2126 | 0.286
EMC-BAC-2 | 0.309
NCI-H2085 | 0.172
HCC-366 | 0.024
NCI-H1666 | 0.543
NCI-H596 | 0.277
LK-2 | 0.0896
NCI-H2087 | 0.104
NCI-H2342 | 0.373
SK-MES-1 | 0.205
H3255 | 0.248
HCC-44 | 0.38
SW 900 | 0.198
NCI-H1648 | 0.293
NCI-H661 | 0.293
NCI-H1792 | 0.0539
NCI-H1563 | 0.413
NCI-H358 | 0.0986
NCI-H650 | 0.196

same assay, conditions: first compound 1 µM

Cell Line | relative viability
NCI-H522 | 0.288
NCI-H1650 | 0.136
NCI-H1993 | 0.435
SW 1573 | 0.0813
NCI-H838 | 0.119
LCLC-103H | 0.225
NCI-H520 | 0.189
NCI-H2126 | 0.217
EMC-BAC-2 | 0.285
NCI-H2085 | 0.243
HCC-366 | 0.0288
NCI-H1666 | 0.57
NCI-H596 | 0.29
LK-2 | 0.1
NCI-H2087 | 0.0907
NCI-H2342 | 0.42
SK-MES-1 | 0.197
H3255 | 0.268
HCC-44 | 0.246
SW 900 | 0.149
NCI-H1648 | 0.265
NCI-H661 | 0.289
NCI-H1792 | 0.0316
NCI-H1563 | 0.473
NCI-H358 | 0.102
NCI-H650 | 0.139

compound: CC[C@@H]1C(=O)N(C)c2cnc(Nc3ccc(C(=O)NC4CCN(C)CC4)cc3OC)nc2N1C1CCCC1 [BI-2536] + CC1(C)CCC(c2ccc(Cl)cc2)=C(CN2CCN(c3ccc(C(=O)NS(=O)(=O)c4ccc(N[C@H](CCN5CCOCC5)CSc5ccccc5)c(S(=O)(=O)C(F)(F)F)c4)cc3)CC2)C1 [Navitoclax] (partner 0.5 µM); experiment: as above; settings: first compound 0.01 µM
Outline: as §1

Cell Line | relative viability
NCI-H727 | 0.356
NCI-H1650 | 1.12
EBC-1 | 0.327
NCI-H1703 | 1.13
NCI-H1993 | 0.984
SW 1573 | 1.04
NCI-H838 | 1.11
NCI-H520 | 1.02
NCI-H2126 | 0.847
EMC-BAC-2 | 1.27
NCI-H2085 | 1.04
Calu-6 | 0.825
HCC-366 | 1.1
NCI-H1666 | 1.13
NCI-H596 | 0.997
LK-2 | 0.798
NCI-H2087 | 0.868
SK-MES-1 | 1.21
H3255 | 0.292
IA-LM | 0.753
HCC-44 | 0.956
A549 | 1.38
NCI-H1299 | 1.08
NCI-H1792 | 0.624

same assay, conditions: first compound 0.03162 µM

Cell Line | relative viability
NCI-H727 | 0.552
NCI-H1650 | 1.1
EBC-1 | 0.28
NCI-H1703 | 0.349
NCI-H1993 | 0.926
SW 1573 | 1.05
NCI-H838 | 1.2
NCI-H520 | 1.03
NCI-H2126 | 0.843
EMC-BAC-2 | 1.24
NCI-H2085 | 1.13
Calu-6 | 0.397
HCC-366 | 1.1
NCI-H1666 | 0.905
NCI-H596 | 1.21
LK-2 | 0.553
NCI-H2087 | 0.974
SK-MES-1 | 1.37
H3255 | 0.359
IA-LM | 0.559
HCC-44 | 1.02
A549 | 1.07
NCI-H1299 | 1.1
NCI-H1792 | 0.589

same assay, conditions: first compound 0.1 µM

Cell Line | relative viability
NCI-H727 | 0.255
NCI-H1650 | 0.62
EBC-1 | 0.171
NCI-H1703 | 0.136
NCI-H1993 | 0.492
SW 1573 | 1.05
NCI-H838 | 0.634
NCI-H520 | 0.366
NCI-H2126 | 0.75
EMC-BAC-2 | 1.21
NCI-H2085 | 0.704
Calu-6 | 0.106
HCC-366 | 0.809
NCI-H1666 | 0.702
NCI-H596 | 0.978
LK-2 | 0.387
NCI-H2087 | 0.8
SK-MES-1 | 1.14
H3255 | 0.196
IA-LM | 0.0092
HCC-44 | 0.849
A549 | 0.0366
NCI-H1299 | 1.05
NCI-H1792 | 0.559

same assay, conditions: first compound 0.3162 µM

Cell Line | relative viability
NCI-H727 | 0.138
NCI-H1650 | 0.145
EBC-1 | 0.173
NCI-H1703 | 0.142
NCI-H1993 | 0.553
SW 1573 | 0.0673
NCI-H838 | 0.164
NCI-H520 | 0.222
NCI-H2126 | 0.328
EMC-BAC-2 | 0.17
NCI-H2085 | 0.208
Calu-6 | 0.0854
HCC-366 | 0.0109
NCI-H1666 | 0.262
NCI-H596 | 0.19
LK-2 | 0.118
NCI-H2087 | 0.112
SK-MES-1 | 0.126
H3255 | 0.113
IA-LM | 0.0147
HCC-44 | 0.0892
A549 | 0.0423
NCI-H1299 | 0.315
NCI-H1792 | 0.171

same assay, conditions: first compound 1 µM

Cell Line | relative viability
NCI-H727 | 0.176
NCI-H1650 | 0.149
EBC-1 | 0.159
NCI-H1703 | 0.104
NCI-H1993 | 0.549
SW 1573 | 0.0547
NCI-H838 | 0.146
NCI-H520 | 0.2
NCI-H2126 | 0.25
EMC-BAC-2 | 0.134
NCI-H2085 | 0.272
Calu-6 | 0.0728
HCC-366 | 0.0154
NCI-H1666 | 0.214
NCI-H596 | 0.184
LK-2 | 0.172
NCI-H2087 | 0.138
SK-MES-1 | 0.139
H3255 | 0.119
IA-LM | 0.0245
HCC-44 | 0.095
A549 | 0.0248
NCI-H1299 | 0.254
NCI-H1792 | 0.0662

compound: CC[C@@H]1C(=O)N(C)c2cnc(Nc3ccc(C(=O)NC4CCN(C)CC4)cc3OC)nc2N1C1CCCC1 [BI-2536] + COc1cc2c(Oc3ccc(NC(=O)C4(C(=O)Nc5ccc(F)cc5)CC4)cc3F)ccnc2cc1OCCCN1CCOCC1 [Foretinib] (partner 0.25 µM); experiment: as above; settings: first compound 0.01 µM
Outline: as §1

Cell Line | relative viability
NCI-H1623 | 0.912
NCI-H727 | 0.818
NCI-H1650 | 1.16
EBC-1 | 0.0994
NCI-H1993 | 0.774
SW 1573 | 0.878
NCI-H838 | 0.953
LCLC-103H | 0.802
NCI-H520 | 0.678
NCI-H2126 | 1.43
EMC-BAC-2 | 1.03
NCI-H2085 | 1.02
